Measurements from patent US9574176B2 (priority 2012, dated 2017).

Assays:
[1] = tested on: nerve cells differentiated from NVDCC-deficient mouse hippocampus-derived neural stem cells; format: cell-based
[2] = tested on: NVDCC-deficient mouse-derived neural stem cells; format: cell-based
[3] = tested on: nicotinic receptor
[4] = tested on: muscarinic receptor; format: cell-based, mouse

In the case of tetradotoxin [TTX], the “activity potential of the differentiated neurons (spike frequency)” value [1] is reported as “suppressed”.

`CC1=C(/C=C/C(C)=C/C=C/C(C)=C/C(=O)O)C(C)(C)CCC1` [ATRA, all-trans retinoic acid] was tested, and the differentiation on induction [2] was “most cells differentiated into MAP2 (microtubule-associated protein 2)-positive nerve cells”.

In the case of `Nc1ccncc1` [4-AP, 4-aminopyridine], the “activity potential of the differentiated neurons (spike frequency)” value [1] is reported as “significantly increased”.

With `CN1CCCC1c1cccnc1` (centres unmarked) [nicotine] the “reaction of differentiated neurons (calcium fluorescence)” value [3] was “reacted”.

In the case of `C[C@@H]1O[C@H](C[N+](C)(C)C)C[C@H]1O` [muscarine], the “reaction of differentiated neurons (calcium fluorescence)” value [4] is reported as “reacted”.
